# From ChEMBL document CHEMBL1201862, “PubChem BioAssay data set” (2004)
# The source made the active and inactive calls.
# Assays:
# [1] = target: Tyrosyl-DNA phosphodiesterase 2 (Homo sapiens, UniProt O95551); test: potency against TDP2 phosphodiesterase activity – biochemical, epi absorbance, IC50, dose response (AID 743297)
# BHK-21 = test: viability loss in BHK-21 cells – cell-based, plate reader, cherry-pick samples, cytotoxicity control, dose response (AID 687030); assay type: functional; details: Mesocricetus auratus
# cells = assay type: functional, cell-based
# [2] = target: Nuclear receptor subfamily 0 group B member 1 (Homo sapiens, UniProt P51843); assay type: functional, cell-based;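 also: HEK293T cells transfected with SF-1 and DAX-1 plus StAR promoter luciferase reporter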
# [3] = A549 cell cytotoxicity, dose response, cytotoxicity control, plate reader, cherry-pick, antagonist series (AID 743412); assay type: functional, cell-based
# [4] = blockade of melanocortin 4 receptor signaling – cell-based, plate reader, cherry pick, counter-screen for LGR2 antagonist project, dose response (AID 743444); assay type: functional;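 also: transfected HEK 293 cells stimulated with alpha-MSH peptide; potency of inhibitors of the alpha-MSH evoked signal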
# [5] = toxicity toward HepG2 liver cells – cell-based, plate reader, cherry-pick, antagonist series, cytotoxicity control, dose response (AID 743416); assay type: functional
# [6] = inhibition of bursicon-driven LGR2 cAMP signaling – cell-based, HEK293, CRE-luciferase reporter, cherry pick, dose response (AID 743342); assay type: functional
# NS3 = NS3 (Hepatitis C virus, UniProt A3EZJ3); test: NS3h DNA-binding inhibition IC50 – biochemical, fluorescence polarization, ChemBridge library, dose response (AID 743264)
# Fatty acid synthase = Fatty acid synthase (Homo sapiens, UniProt P49327); test: inhibition of human FAS-TE enzyme activity – biochemical, endpoint fluorescence intensity, powder samples, SAR follow-up (AID 652164); assay type: functional
# [7] = T. cruzi growth inhibition in host cells, dose response, cell-based, plate reader, dry powder, set 2 (AID 652275); assay type: functional
# [8] = inhibitors of TRPM1-promoter reporter in SK-MEL-5 – cell-based, luciferase, dry powder, set 8, MITF inhibitor project, dose response (AID 624430); assay type: functional
# [9] = MITF: Counter assay: A375 proliferation Measured in Cell-Based System Using Plate Reader - 2084-03_Inhibitor_Dose_DryPowder_Activity_Set8.; assay type: functional; details: A-375
# [10] = MITF Orthogonal Assay: SK-MEL-5 CTG Assay Measured in Cell-Based System Using Plate Reader - 2084-02_Inhibitor_Dose_DryPowder_Activity_Set7.; assay type: functional
# Tyrosyl-DNA phosphodiesterase 2, sequence (O95551 whole entry): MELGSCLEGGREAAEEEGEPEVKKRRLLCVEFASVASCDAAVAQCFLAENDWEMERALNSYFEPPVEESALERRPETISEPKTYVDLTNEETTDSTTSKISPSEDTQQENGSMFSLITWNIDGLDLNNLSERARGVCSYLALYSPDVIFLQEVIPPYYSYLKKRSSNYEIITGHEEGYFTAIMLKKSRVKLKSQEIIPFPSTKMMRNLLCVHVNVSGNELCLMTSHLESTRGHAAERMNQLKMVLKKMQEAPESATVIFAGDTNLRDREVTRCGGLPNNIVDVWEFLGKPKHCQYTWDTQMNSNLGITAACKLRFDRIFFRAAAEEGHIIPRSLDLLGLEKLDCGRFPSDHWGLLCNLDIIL
# Nuclear receptor subfamily 0 group B member 1, sequence (P51843 whole entry): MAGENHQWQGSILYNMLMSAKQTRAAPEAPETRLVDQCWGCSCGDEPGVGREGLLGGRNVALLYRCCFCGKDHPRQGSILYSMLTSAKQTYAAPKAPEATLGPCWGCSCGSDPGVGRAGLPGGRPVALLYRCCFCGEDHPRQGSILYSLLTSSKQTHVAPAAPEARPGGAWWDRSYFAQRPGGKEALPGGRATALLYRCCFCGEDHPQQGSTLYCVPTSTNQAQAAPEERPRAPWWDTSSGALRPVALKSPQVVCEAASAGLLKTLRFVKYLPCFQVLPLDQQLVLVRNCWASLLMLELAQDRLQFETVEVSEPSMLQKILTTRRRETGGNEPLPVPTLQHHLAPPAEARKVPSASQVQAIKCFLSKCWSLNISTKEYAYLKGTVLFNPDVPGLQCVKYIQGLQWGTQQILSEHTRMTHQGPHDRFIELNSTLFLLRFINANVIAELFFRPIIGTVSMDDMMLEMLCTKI
# Fatty acid synthase, sequence (P49327 whole entry): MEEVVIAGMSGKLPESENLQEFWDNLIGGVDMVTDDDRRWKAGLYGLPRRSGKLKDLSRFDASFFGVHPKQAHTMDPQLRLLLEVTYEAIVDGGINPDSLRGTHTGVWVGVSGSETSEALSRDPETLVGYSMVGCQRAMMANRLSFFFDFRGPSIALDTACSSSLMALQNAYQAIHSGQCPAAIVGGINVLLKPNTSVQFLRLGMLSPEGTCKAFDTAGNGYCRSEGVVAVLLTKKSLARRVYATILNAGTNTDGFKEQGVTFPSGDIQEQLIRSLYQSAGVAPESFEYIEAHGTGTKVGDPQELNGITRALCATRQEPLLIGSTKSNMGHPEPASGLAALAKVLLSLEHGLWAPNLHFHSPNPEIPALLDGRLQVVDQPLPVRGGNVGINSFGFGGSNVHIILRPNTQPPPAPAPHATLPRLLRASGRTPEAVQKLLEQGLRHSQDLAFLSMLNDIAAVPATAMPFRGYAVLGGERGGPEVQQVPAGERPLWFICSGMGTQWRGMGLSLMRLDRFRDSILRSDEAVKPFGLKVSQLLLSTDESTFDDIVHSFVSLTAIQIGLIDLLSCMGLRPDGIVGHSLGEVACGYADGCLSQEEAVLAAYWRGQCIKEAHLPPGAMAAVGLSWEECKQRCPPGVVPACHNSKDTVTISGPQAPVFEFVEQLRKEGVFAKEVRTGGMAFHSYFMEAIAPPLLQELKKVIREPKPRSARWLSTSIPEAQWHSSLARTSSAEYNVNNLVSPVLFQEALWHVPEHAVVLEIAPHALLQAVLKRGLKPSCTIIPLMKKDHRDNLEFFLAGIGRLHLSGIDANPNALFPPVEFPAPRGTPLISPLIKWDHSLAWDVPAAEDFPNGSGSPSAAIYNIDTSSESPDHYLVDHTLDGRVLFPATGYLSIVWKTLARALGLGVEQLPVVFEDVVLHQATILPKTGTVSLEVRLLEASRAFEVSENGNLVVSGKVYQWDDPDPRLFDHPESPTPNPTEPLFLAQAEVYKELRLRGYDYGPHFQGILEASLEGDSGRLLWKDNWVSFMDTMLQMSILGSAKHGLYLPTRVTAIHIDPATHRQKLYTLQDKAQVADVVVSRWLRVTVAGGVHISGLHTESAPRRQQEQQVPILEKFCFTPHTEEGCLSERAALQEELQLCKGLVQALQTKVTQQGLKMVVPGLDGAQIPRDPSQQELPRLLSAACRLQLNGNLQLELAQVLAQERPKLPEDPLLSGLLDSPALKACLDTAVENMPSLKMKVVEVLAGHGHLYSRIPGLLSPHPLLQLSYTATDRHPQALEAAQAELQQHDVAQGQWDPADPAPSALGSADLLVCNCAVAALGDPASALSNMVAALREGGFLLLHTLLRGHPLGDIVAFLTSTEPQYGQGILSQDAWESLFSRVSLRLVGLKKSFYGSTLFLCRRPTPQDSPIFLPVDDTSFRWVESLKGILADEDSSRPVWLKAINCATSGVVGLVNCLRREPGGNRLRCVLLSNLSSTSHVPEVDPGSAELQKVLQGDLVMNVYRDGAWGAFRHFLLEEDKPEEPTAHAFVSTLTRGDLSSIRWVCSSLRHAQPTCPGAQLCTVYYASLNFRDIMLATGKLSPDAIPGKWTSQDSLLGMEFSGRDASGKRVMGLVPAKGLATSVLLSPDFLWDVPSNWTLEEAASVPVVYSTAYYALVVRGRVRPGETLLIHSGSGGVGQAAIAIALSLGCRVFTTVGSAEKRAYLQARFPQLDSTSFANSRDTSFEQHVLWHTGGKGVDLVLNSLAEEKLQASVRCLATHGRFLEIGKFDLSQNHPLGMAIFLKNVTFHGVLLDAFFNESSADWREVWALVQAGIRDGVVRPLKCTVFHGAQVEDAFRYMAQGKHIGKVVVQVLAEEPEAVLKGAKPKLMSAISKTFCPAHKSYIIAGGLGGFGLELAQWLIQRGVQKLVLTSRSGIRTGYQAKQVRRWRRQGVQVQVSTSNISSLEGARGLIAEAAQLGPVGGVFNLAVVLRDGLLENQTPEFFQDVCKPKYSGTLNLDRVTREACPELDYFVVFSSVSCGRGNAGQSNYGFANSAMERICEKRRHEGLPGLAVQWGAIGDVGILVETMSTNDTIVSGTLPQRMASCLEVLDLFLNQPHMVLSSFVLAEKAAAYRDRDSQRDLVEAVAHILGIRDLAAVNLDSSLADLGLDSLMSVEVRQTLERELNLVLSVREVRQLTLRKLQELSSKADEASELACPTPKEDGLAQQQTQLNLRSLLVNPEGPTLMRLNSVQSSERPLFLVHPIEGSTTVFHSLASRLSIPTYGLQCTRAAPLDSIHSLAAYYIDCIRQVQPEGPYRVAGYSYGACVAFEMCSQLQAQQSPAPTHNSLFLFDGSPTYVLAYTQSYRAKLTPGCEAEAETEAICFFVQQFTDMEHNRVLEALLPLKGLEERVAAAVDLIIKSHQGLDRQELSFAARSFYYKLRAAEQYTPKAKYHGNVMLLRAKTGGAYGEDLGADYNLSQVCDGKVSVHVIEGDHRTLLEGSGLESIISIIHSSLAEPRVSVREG
# NS3, sequence (A3EZJ3 whole entry): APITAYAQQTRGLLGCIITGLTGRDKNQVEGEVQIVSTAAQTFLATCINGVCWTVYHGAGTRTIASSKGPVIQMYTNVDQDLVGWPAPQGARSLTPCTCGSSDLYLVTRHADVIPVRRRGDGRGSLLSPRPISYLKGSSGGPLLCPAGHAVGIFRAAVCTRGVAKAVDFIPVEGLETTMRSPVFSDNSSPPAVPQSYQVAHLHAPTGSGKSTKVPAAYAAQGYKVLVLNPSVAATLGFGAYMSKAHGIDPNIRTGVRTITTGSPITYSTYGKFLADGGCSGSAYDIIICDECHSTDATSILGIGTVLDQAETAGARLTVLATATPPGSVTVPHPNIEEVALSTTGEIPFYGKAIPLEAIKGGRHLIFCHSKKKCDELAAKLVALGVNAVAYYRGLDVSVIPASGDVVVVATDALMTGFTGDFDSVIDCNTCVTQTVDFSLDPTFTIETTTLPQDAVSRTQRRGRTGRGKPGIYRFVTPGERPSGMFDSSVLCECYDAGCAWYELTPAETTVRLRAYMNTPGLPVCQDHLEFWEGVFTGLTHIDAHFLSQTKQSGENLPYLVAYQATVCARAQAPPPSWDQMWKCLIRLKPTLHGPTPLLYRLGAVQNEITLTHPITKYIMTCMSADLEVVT
structure (smiles),measurement,setting,value
CCOc1ccc(NC2=CC(=O)C(=O)c3ccccc32)cc1,IC50,[1],> 128 µM (inactive)
CCNC(=O)C[C@H]1CC[C@@H]2[C@H](COC[C@H](O)CN2Cc2ccc(Cl)c(Cl)c2)O1,AC50,BHK-21,36.8 µM (active)
C=C1CCCC2OC(CC3=CC4/C(C)=C/CC(C)CC(/C=C(\C)C(O)C5CC(O)C(O)C(CCC(O)/C=C/C(C)=C/CCC6=NCCC(C3)C64C)O5)OC(=O)CC3OC(C(O)C1)C(O)C3O)CC(O)C2O (centres undefined),IC50,cells,> 67.5 µM (inactive)
same,IC50,[2],> 67.5 µM (inactive)
C[C@H](CO)N1C[C@H](C)[C@H](CN(C)C(=O)Nc2ccc(C(F)(F)F)cc2)OCCCC[C@H](C)Oc2ccc(NC(=O)NC3CCCCC3)cc2C1=O,AC50,[3],> 52 µM (inactive)
same,AC50,[4],0.898 µM (active)
same,AC50,[5],> 52 µM (inactive)
same,AC50,[6],8.74 µM (active)
CC1=C(C#N)c2nc(N)c(C#N)c(C)c2C1=Cc1ccc(-c2cccc(C(=O)O)c2)o1,IC50,NS3,143 µM (active)
CCCCC(=O)Nc1nc(-c2cccc(S(=O)(=O)N3CCOCC3)c2)cs1,IC50,Fatty acid synthase,20.2 µM (inactive)
O=C(C1CCCC1)N1CCCCN2[C@@H](CO)[C@H](c3ccc(-c4cccc(F)c4)cc3)[C@@H]2C1,AC50,[7],0.121 µM (active)
O=C1C(Nc2cccc(Br)c2)=C(N2CCCCC2)C(=O)c2ccccc21,AC50,[8],9.81 µM (active)
same,AC50,[9],> 70 µM (inactive)
same,AC50,[10],19.7 µM (active)
